Measurements taken from patent publication US11612595B2, “Compositions and methods for treating rheumatoid arthritis” (Generos Biopharma Ltd., priority 2017, dated 2023).

Assays:
SH2 domain of STAT1 = target: T1, SH2 domain of STAT1 (Homo sapiens, UniProt P42224); details: read-out: IC50 towards the SH2 domain of STAT1; cited from earlier work
T1 sequence (P42224 1-750): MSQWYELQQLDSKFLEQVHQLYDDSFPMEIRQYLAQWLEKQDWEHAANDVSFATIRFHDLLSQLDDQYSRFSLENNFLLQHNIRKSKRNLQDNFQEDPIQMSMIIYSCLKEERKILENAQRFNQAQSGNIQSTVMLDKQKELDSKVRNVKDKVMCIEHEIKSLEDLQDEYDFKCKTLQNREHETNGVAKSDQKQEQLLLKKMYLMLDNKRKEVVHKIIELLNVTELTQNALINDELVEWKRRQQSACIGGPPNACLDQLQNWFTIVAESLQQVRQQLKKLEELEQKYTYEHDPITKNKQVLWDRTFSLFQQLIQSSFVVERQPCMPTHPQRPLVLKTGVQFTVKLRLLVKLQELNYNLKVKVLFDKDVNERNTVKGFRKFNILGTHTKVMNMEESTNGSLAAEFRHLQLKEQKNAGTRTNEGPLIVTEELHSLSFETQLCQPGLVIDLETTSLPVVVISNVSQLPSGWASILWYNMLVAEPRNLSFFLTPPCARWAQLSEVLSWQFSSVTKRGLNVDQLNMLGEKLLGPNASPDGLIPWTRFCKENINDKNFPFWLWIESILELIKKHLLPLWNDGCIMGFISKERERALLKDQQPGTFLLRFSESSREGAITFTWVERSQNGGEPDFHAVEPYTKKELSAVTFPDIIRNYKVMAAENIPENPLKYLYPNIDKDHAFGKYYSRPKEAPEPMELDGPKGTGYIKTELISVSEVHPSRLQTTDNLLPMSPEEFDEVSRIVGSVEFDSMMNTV

SH2 domain of Lck = SH2 domain of Lck (Homo sapiens, UniProt P06239); details: read-out: IC50 towards the SH2 domain of Lck; cited from earlier work
Sequence of SH2 domain of Lck (P06239 120-226 limits assumed): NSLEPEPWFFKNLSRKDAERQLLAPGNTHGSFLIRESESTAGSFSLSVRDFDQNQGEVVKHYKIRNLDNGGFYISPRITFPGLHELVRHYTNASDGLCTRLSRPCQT

[1] = weight changes in mouse CIA model; assay type: in vivo, DBA/1J mice
Protocol: FIGS. 7A and 78 show graphs depicting weight changes in five groups of mouse CIA models under different treatment schemes. DBA/1 mice were randomly divided into 9 groups with 10 mice each group. On day 0 and 21, all of them except blank control group were inoculated with 50 ul collagen plus CFA mixture subcutaneously at back flank near tail. The weights of all 90 mice were monitored 3 times a week throughout the experiment.
Eight of nine groups (10 mice in each group) of male DBA/1J mice (age 9-10 weeks. H-2q haplotype) were subject to CIA model induction and then to different treatment schemes. The group of mice without CIA model induction was used as a control (Blank). Specifically, Bovine type II collagen (Chondrex) was mixed with Freund's complete adjuvant (CFA) (Sigma) and injected s.c. to flank near tail of the mice twice (the second injection was made 21 days after the first injection) to create CIA model mice. The eight groups of CIA model mice were separated into four prophylactic groups and four therapeutic groups, with each group subjected to different treatments.
In the four prophylactic groups, daily treatments started from the date when the first CIA induction injection was made. The first of the four prophylactic groups of CIA model mice were treated with 30% PEG300 (containing 4% DMSO-all 30% PEG300 in the application contains 4% DMSO) solution via intraperitoneal injection as controls (Model). The second of the four prophylactic groups of CIA model mice were treated with nicotinohydrazide (Calbiochem) 10 mg/kg in 30% PEG300 solution via intraperitoneal injection (573108 10 mg/kg). The third of the four prophylactic groups of CIA model mice were treated with nicotinohydrazide (Calbiochem) 5 mg/kg in 30% PEG300 solution via intraperitoneal injection (573108 5 mg/kg). The last of the four prophylactic groups of CIA model mice were treated with Tofacitinib (Selleckchem) 5 mg/kg in 30% PEG300 solution via intraperitoneal injection (Tofacitinib 5 mg/kg).
In the four therapeutic groups, daily treatments started from the date when the second CIA induction injection was made. The first of the four therapeutic groups of CIA model mice were treated with 30% PEG300 solution via intraperitoneal injection as controls (Model). The second of the four therapeutic groups of CIA model mice were treated with nicotinohydrazide (Calbiochem) 10 mg/kg in 30% PEG300 solution via intraperitoncal injection (573108 10 mg/kg). The third of the four therapeutic groups of CIA model mice were treated with nicotinohydrazide (Calbiochem) 5 mg/kg in 30% PEG300 solution via intraperitoneal injection (573108 5 mg/kg). The last of the four therapeutic groups of CIA model mice were treated with Tofacitinib (Selleckchem) 5 mg/kg in 30% PEG300 solution via intraperitoncal injection (Tofacitinib 5 mg/kg).
The inventors collected data of the weight, and clinical scores of the mice every 2-3 days and performed statistic analysis. The method used in the statistic analysis was Student's t test, unpaired, two-tailed analysis.

STAT1 = target: T2, STAT1 (Homo sapiens, UniProt P42224); details: K562 cells, 10 μM 1 h pretreatment; cited from earlier work
T2 sequence (P42224 1-750): T1 sequence (P42224 1-750)

AIA mouse model = AIA mouse model (mBSA-induced knee arthritis); assay type: in vivo, mice (C57BL/6); details: 10 mg/kg intraperitoneal
Protocol: This example describes a method of RA treatment with pimozide in a AIA mouse model. The right knees of fourteen mice (C57BL/6) were immunized with mBSA injection on the right knee to induce arthritis, while the left knees were used as control. Nine of the mice was then treated with pimozide. Specifically, pimozide was dissolved in DMSO at a concentration of 50 mg/ml, and then diluted in 30% PEG300 (Sigma) for intraperitoneal injection at 10 mg/kg dose. The remaining five mice were treated with vehicle DMSO that is diluted in 30% PEG300 for intraperitoneal injection. After 7 days, the mice were sacrificed and knees were dissected and fixed in 10% formalin and decalcified in 5% formic acid before dehydration and embedding in paraffin followed by standard hematoxylin and eosin (H&E) stain procedure.

[2] = prophylactic groups, 5 mg/kg i.p. daily
[3] = prophylactic groups, 10 mg/kg i.p. daily
[4] = therapeutic groups, 5 mg/kg i.p. daily

## O=C(N/N=C/c1coc2ccccc2c1=O)c1cccnc1 [nicotinohydrazide, N′-((4-Oxo-4H-chromen-3-yl)methylene)nicotinohydrazide]
SH2 domain of STAT1
  IC50: > 500 µM
SH2 domain of Lck
  IC50: > 500 µM
[1]; [2]
  trend of weight changes, p vs Model: 0.4638
  trend of weight changes, p vs Tofacitinib 5 mg/kg: 0.0136
[1]; [3]
  trend of weight changes, p vs Model: 0.32
  trend of weight changes, p vs Tofacitinib 5 mg/kg: 0.0207
[1]; [4]
  trend of weight changes, p vs Model: < 0.0001
  trend of weight changes, p vs Tofacitinib 5 mg/kg: 0.0006
[1]; therapeutic groups, 10 mg/kg i.p. daily
  trend of weight changes, p vs Model: < 0.0001

## O=c1[nH]c2ccccc2n1C1CCN(CCCC(c2ccc(F)cc2)c2ccc(F)cc2)CC1 [pimozide, 1-[1-[4,4-bis(4-fluorophenyl)butyl]-4-piperidinyl]-1,3-dihydro-2H-benzimidazole-2-one]
STAT1
  IFNα-stimulated STAT1 phosphorylation: little activity
AIA mouse model; after 7 days, vs vehicle
  infiltration of immune cells in knee cavity (H&E staining): reduced infiltration of immune cells
AIA mouse model; vs vehicle group
  knee diameter differences (right knee vs left knee): significantly smaller
